Results from patent publication US10407409B2, “6-(5-hydroxy-1H-pyrazol-1-yl)nicotinamide inhibitors of PHD” (Takeda Pharmaceutical Company Limited, priority 2013, dated 2019).

Experiments:
[1] = tested on: HIF1a protein in H9c2 rat cardiomyocytes; experiment: Cell-based HIF-alpha stabilization assay (inhibition of PHD in cells); details: Rattus norvegicus, H9c2, 24 h, 24 hrs compound incubation, HIF1a protein by ELISA, read-out: Inhibition of PHD in cells (pEC50) (converted)
How it was run: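 HIF1a stabilization was measured by ELISA on lysates of H9c2 rat cardiomyocytes after 24 h exposure to 11 serial compound concentrations, expressed relative to the desferrioxamine maximum. Curve fits gave EC50. EC50pos denotes the concentration producing half the desferrioxamine maximal response.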

[2] = molecular target: PHD2 enzyme (residues 181-417) (Homo sapiens (Human), UniProt Q9GZT9); experiment: Inhibition of PHD enzyme (LC/MS peptide hydroxylation assay); format: biochemical; details: PHD2 (residues 181-417) 5 nM, 60 min pre-incubation; -log(IC50), IC50 molar
How it was run: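 Hydroxylated peptide quantified by LC/MS after 60 min turnover of 1 uM biotinylated peptide with 2 uM 2-oxoglutarate and 1 mM ascorbate, stopped by excess tight-binding inhibitor. Beforehand, 5 nM enzyme and compound were preincubated 60 min at RT, pH 7.3 HEPES/KCl/TCEP/FeCl2/BSA buffer. Values as pIC50 (−log molar IC50).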

Sequence of PHD2 enzyme (residues 181-417) (Q9GZT9 181-417): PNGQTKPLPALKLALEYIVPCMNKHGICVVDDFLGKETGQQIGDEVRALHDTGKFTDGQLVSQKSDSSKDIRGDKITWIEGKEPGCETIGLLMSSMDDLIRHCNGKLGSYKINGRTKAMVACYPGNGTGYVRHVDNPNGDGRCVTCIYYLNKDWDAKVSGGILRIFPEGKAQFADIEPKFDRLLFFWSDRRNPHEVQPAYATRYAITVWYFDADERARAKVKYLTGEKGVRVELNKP

Compound | EC50 [1] [nM] | PHD Inhibition (pIC50) [2]
CN(C(=O)c1ccc(-n2ncc(-c3ccc(C#N)cc3)c2O)nc1)C1CC1 [Example 239, 6-(4-(4-cyanophenyl)-5-hydroxy-1H-pyrazol-1-yl)-N-cyclopropyl-N-methylnicotinamide] | 1700 | 7.12
N#Cc1ccc(-c2cnn(-c3ccc(C(=O)NCCC4CCCO4)cn3)c2O)cc1 (centres unmarked) [Example 241, 6-(4-(4-cyanophenyl)-5-hydroxy-1H-pyrazol-1-yl)-N-(2-(tetrahydrofuran-2-yl)ethyl)nicotinamide] | 437 | 7.51
COc1cc(-c2cnn(-c3ccc(C(=O)N(C)C4CC4)cn3)c2O)ccn1 [Example 243, N-cyclopropyl-6-(5-hydroxy-4-(2-methoxypyridin-4-yl)-1H-pyrazol-1-yl)-N-methylnicotinamide] | 4170 | 6.9
Cc1cc(C#N)ccc1-c1cnn(-c2ccc(C(=O)NC3CC4(COC4)C3)cn2)c1O [Example 244, 6-(4-(4-cyano-2-methylphenyl)-5-hydroxy-1H-pyrazol-1-yl)-N-(2-oxaspiro[3.3]heptan-6-yl)nicotinamide] | 240 | 8.4
Cc1cc(C#N)ccc1-c1cnn(-c2ccc(C(=O)NCCC3CCCO3)cn2)c1O (centres unmarked) [Example 245, 6-(4-(4-cyano-2-methylphenyl)-5-hydroxy-1H-pyrazol-1-yl)-N-(2-(tetrahydrofuran-2-yl)ethyl)nicotinamide] | 240 | 8.4
Cc1cc(C#N)ccc1-c1cnn(-c2ccc(C(=O)N(C)C3CC3)cn2)c1O [Example 246, 6-(4-(4-cyano-2-methylphenyl)-5-hydroxy-1H-pyrazol-1-yl)-N-cyclopropyl-N-methylnicotinamide] | 407 | 7.8
Cc1cc(C#N)ccc1-c1cnn(-c2ccc(C(=O)NCC3CCC(F)(F)CC3)cn2)c1O [Example 247, 6-(4-(4-cyano-2-methylphenyl)-5-hydroxy-1H-pyrazol-1-yl)-N-((4,4-difluorocyclohexyl)methyl)nicotinamide] | 813 | 8.2
COCC1CCN(C(=O)c2ccc(-n3ncc(-c4ccc(C#N)cc4C)c3O)nc2)CC1 [Example 248, 4-(5-hydroxy-1-(5-(4-(methoxymethyl)piperidine-1-carbonyl)pyridin-2-yl)-1H-pyrazol-4-yl)-3-methylbenzonitrile] | 251 | 8.3
COC1CCN(C(=O)c2ccc(-n3ncc(-c4ccc(C#N)cc4C)c3O)nc2)CC1 [Example 249, 4-(5-hydroxy-1-(5-(4-methoxypiperidine-1-carbonyl)pyridin-2-yl)-1H-pyrazol-4-yl)-3-methylbenzonitrile] | 275 | 8.3
Cc1cc(C#N)ccc1-c1cnn(-c2ccc(C(=O)NCCOC(F)(F)F)cn2)c1O [Example 250, 6-(4-(4-cyano-2-methylphenyl)-5-hydroxy-1H-pyrazol-1-yl)-N-(2-(trifluoromethoxy)ethyl)nicotinamide] | 457 | 8
COCCCN(C)C(=O)c1ccc(-n2ncc(-c3ccc(C#N)cc3C)c2O)nc1 [Example 251, 6-(4-(4-cyano-2-methylphenyl)-5-hydroxy-1H-pyrazol-1-yl)-N-(3-methoxypropyl)-N-methylnicotinamide] | 324 | 8.2
COCC1CCN(C(=O)c2ccc(-n3ncc(-c4ccc(C#N)cc4C)c3O)nc2)C1 (centres unmarked) [Example 252, 4-(5-hydroxy-1-(5-(3-(methoxymethyl)pyrrolidine-1-carbonyl)pyridin-2-yl)-1H-pyrazol-4-yl)-3-methylbenzonitrile] | 263 | 8.3
COc1cc(-c2cnn(-c3ccc(C(=O)NCC4CCOCC4)cn3)c2O)ccc1C#N [Example 253, 6-(4-(4-cyano-3-methoxyphenyl)-5-hydroxy-1H-pyrazol-1-yl)-N-((tetrahydro-2H-pyran-4-yl)methyl)nicotinamide] | 5620 | 8.3
COc1cc(-c2cnn(-c3ccc(C(=O)NCC4CCOCC4)cn3)c2O)c(F)cn1 [Example 254, 6-(4-(5-fluoro-2-methoxypyridin-4-yl)-5-hydroxy-1H-pyrazol-1-yl)-N-((tetrahydro-2H-pyran-4-yl)methyl)nicotinamide] | 2750 | 8
COc1nccc(-c2cnn(-c3ccc(C(=O)NCC4CCOCC4)cn3)c2O)c1OC [Example 255, 6-(4-(2,3-dimethoxypyridin-4-yl)-5-hydroxy-1H-pyrazol-1-yl)-N-((tetrahydro-2H-pyran-4-yl)methyl)nicotinamide] | 1450 | 7.6
N#Cc1ccc(-c2cnn(-c3ccc(C(=O)N[C@H]4CC[C@@H](O)C4)cn3)c2O)cc1 [Example 258, 6-(4-(4-cyanophenyl)-5-hydroxy-1H-pyrazol-1-yl)-N-((1s,3r)-3-hydroxycyclopentyl)nicotinamide] | 813 | 7.44

Compound | EC50 [1] [nM] | PHD Inhibition (pIC50) [2]
N#Cc1ccc(-c2cnn(-c3ccc(C(=O)N[C@H]4CC[C@H](O)C4)cn3)c2O)cc1 [Example 259, 6-(4-(4-cyanophenyl)-5-hydroxy-1H-pyrazol-1-yl)-N-((1s,3s)-3-hydroxycyclopentyl)nicotinamide] | 1000 | 7.39
CC1(CNC(=O)c2ccc(-n3ncc(-c4ccc(C#N)cc4)c3O)nc2)COC1 [Example 261, 6-(4-(4-cyanophenyl)-5-hydroxy-1H-pyrazol-1-yl)-N-((3-methyloxetan-3-yl)methyl)nicotinamide] | 1120 | 7.39
CC1CC1NC(=O)c1ccc(-n2ncc(-c3ccc(C#N)cc3)c2O)nc1 (centres unmarked) [Example 262, 6-(4-(4-cyanophenyl)-5-hydroxy-1H-pyrazol-1-yl)-N-(2-methylcyclopropyl)nicotinamide] | 525 | 7.38
N#Cc1ccc(-c2cnn(-c3ccc(C(=O)NCC4(F)CCCCC4)cn3)c2O)cc1 [Example 263, 6-(4-(4-cyanophenyl)-5-hydroxy-1H-pyrazol-1-yl)-N-((1-fluorocyclohexyl)methyl)nicotinamide] | 1230 | 7.22
N#Cc1ccc(-c2cnn(-c3ccc(C(=O)NCC4CC(F)(F)C4)cn3)c2O)cc1 [Example 264, 6-(4-(4-cyanophenyl)-5-hydroxy-1H-pyrazol-1-yl)-N-((3,3-difluorocyclobutyl)methyl)nicotinamide] | 1620 | 6.99
N#Cc1ccc(-c2cnn(-c3ccc(C(=O)NC4CC(F)(F)C4)cn3)c2O)cc1 [Example 265, 6-(4-(4-cyanophenyl)-5-hydroxy-1H-pyrazol-1-yl)-N-(3,3-difluorocyclobutyl)nicotinamide] | 6610 | 6.77
CCNC(=O)c1ccc(-n2ncc(-c3ccc(C#N)cc3)c2O)nc1 [Example 266, 6-(4-(4-cyanophenyl)-5-hydroxy-1H-pyrazol-1-yl)-N-ethylnicotinamide] | 1910 | 7.23
CCCNC(=O)c1ccc(-n2ncc(-c3ccc(C#N)cc3)c2O)nc1 [Example 267, 6-(4-(4-cyanophenyl)-5-hydroxy-1H-pyrazol-1-yl)-N-propylnicotinamide] | 708 | 7.36
CN(C)CCNC(=O)c1ccc(-n2ncc(-c3ccc(C#N)cc3)c2O)nc1 [Example 268, 6-(4-(4-cyanophenyl)-5-hydroxy-1H-pyrazol-1-yl)-N-(2-(dimethylamino)ethyl)nicotinamide] | 1950 | 6.32
CN(C)CCCNC(=O)c1ccc(-n2ncc(-c3ccc(C#N)cc3)c2O)nc1 [Example 269, 6-(4-(4-cyanophenyl)-5-hydroxy-1H-pyrazol-1-yl)-N-(3-(dimethylamino)propyl)nicotinamide] | 1950 | 6.82
CN1CCC(NC(=O)c2ccc(-n3ncc(-c4ccc(C#N)cc4)c3O)nc2)CC1 [Example 270, 6-(4-(4-cyanophenyl)-5-hydroxy-1H-pyrazol-1-yl)-N-(1-methylpiperidin-4-yl)nicotinamide] | 1000 | 7.34
CN1CCC(CNC(=O)c2ccc(-n3ncc(-c4ccc(C#N)cc4)c3O)nc2)CC1 [Example 271, 6-(4-(4-cyanophenyl)-5-hydroxy-1H-pyrazol-1-yl)-N-((1-methylpiperidin-4-yl)methyl)nicotinamide] | 1550 | 6.98
CNC(=O)c1cnc(-n2ncc(-c3ccc(C#N)cc3)c2O)cc1C [Example 273, 6-(4-(4-cyanophenyl)-5-hydroxy-1H-pyrazol-1-yl)-N,4-dimethylnicotinamide] | 9330 | 7.06
CCNC(=O)c1cnc(-n2ncc(-c3ccc(C#N)cc3)c2O)cc1C [Example 274, 6-(4-(4-cyanophenyl)-5-hydroxy-1H-pyrazol-1-yl)-N-ethyl-4-methylnicotinamide] | 6460 | 7.03
Cc1cc(-n2ncc(-c3ccc(C#N)cc3)c2O)ncc1C(=O)NC1CC1 [Example 275, 6-(4-(4-cyanophenyl)-5-hydroxy-1H-pyrazol-1-yl)-N-cyclopropyl-4-methylnicotinamide] | 3800 | 7.03
